Laboratory results as given in patent US20090221513A1, “Treatment of Neurodegenerative Disorders” (The Open University, priority 2005, published 2009).
Entries after “also recorded” stand apart in the source; their conditions may differ. Where a SMILES comes first, the peptide text is derived from it. [ ]: non-standard residue; d: D form. ξ: configuration not given here. ξR = N=C(N)NCCCC(N)C(=O)O; ξE = NC(CCC(=O)O)C(=O)O

Experiments:
[1] = system: chicks trained on a weak training task; assay: one trial passive avoidance task, weak training (10% methylanthranilate), memory enhancement; assay type: in vivo, chick; settings: for bio-activity as a cognitive enhancer: chick, D/L forms compared with RER; for memory retention (percent showing avoidance and discrimination), FIG. 1: weak aversive learning task, ic injection 60 min pre-training, saline control
Method: FIG. 1 The effect of different D/L forms of tripeptide as memory enhancers on weak memory. Chicks were injected ic with different D/L forms of tripeptide 60 min pre-training and tested 24 after. The control group received saline. […] Each chick was trained and tested only once and differences between groups were tested for statistical significance by G-test (Sokal, and Rohlf, 1995). Note that the G-test reflects group differences, and so there are no error bars on the figures.
FIG. 3 The effect of Ac-rER as memory enhancer in chicks trained on a weak training task (WT). Chicks were injected 2×ip injections, 1 mg/100 gr bw, 30 min and 6 hr pre-training and tested 24 hr later. The control groups received Ac-REr. […] Each chick was trained and tested only once and differences between groups were tested for statistical significance by G-test (Sokal, and Rohlf, 1995).
FIG. 5 Dose-dependence of the effect of Ac-rER in weak training. Chicks were injected ip with different doses of the Ac-rER 60 min pre-training and tested 24 after. The control group received saline. […] Each chick was trained and tested only once and differences between groups were tested for statistical significance by G-test (Sokal, and Rohlf, 1995).
FIG. 6 Stability of Ac-rER. Chicks were injected ip with 2 mg/100 g bw of Ac-rER 1, 2, 4, 6 and 12 hr before training and tested 24 hr later. The control group received saline. […] Each chick was trained and tested only once and differences between groups were tested for statistical significance by G-test (Sokal, and Rohlf, 1995). […]
Commercially obtained Ross Chunky eggs were incubated and hatched in brooders and held until 16±6 hours old. Chicks were placed in pairs in small aluminium pens. Following an equilibration period of an hour, the chicks were pretrained and trained essentially as described by Lossner and Rose (J. Neurochem. 41, 1357-1363 (1983), the contents of which are incorporated herein by reference). Pretraining involved three 10 s presentations of a small (2 mm diameter) white bead, at approximately 5 minute intervals. […] Two training techniques were used: “strong” and “weak” training. In both, 5 to 10 minutes after the last pre-training trial, chicks were trained by a 10 s presentation of a 4 mm diameter chrome bead, which had been dipped in the bitter-tasting methylanthranilate. Control chicks pecked at a water-coated or dry bead. In the “strong” version of the task, 100% methylanthranilate was used. In the “weak” version, 10% methylanthranilate was used. Chicks spontaneously pecked at the training or control beads within 20 s. Chicks that pecked at the bitter bead evinced a disgust reaction and would not normally peck at a similar, but dry bead for some hours subsequently. At various times following training chicks were tested, by offering them a dry 4 mm diameter chrome bead, followed 10 minutes later by a small (2 mm diameter) white bead, each for 20 to 30 s. Animals were tested by an experimenter blind as to which treatment each chick had received. Chicks are considered to remember the task if they avoid the chrome bead at test but peck at the white bead (discriminate), and to have forgotten it if they peck at both beads. Recall is calculated as a percent avoidance score (percentage of chicks which avoid the chrome bead) and as a discrimination score (percentage of chicks which avoid the chrome but peck at the white bead). […] Each chick was trained and tested only once and differences between groups tested for statistical significance by g-test described by Sokal and Rohlf (biometry: the Principles and Practice of Statistics in Biological Research (2nd edition), W H Freeman, New York (1981)), the contents of which are incorporated herein by reference. […]

[2] = system: chicks with Aβ1-42-induced amnesia; assay: passive avoidance task in chicks with Aβ-induced amnesia; assay type: in vivo, chick; settings: for protection against amyloid-beta induced memory loss: chick
Method: FIG. 2 The effect of Ac-rER on memory in chicks with Aβ-induced amnesia. Chicks were injected 2×ip, 1 mg/100 gr bw, with Ac-rER, 6 hr and 12 hr pre-training. Aβ1-42 (2 μg/hemisphere) was injected ic 60 min pre-training. Chicks were tested 24 hr later. […] Each chick was trained and tested only once and differences between groups were tested for statistical significance by G-test (Sokal, and Rohlf, 1995).
Commercially obtained Ross Chunky eggs were incubated and hatched in brooders and held until 16±6 hours old. Chicks were placed in pairs in small aluminium pens. Following an equilibration period of an hour, the chicks were pretrained and trained essentially as described by Lossner and Rose (J. Neurochem. 41, 1357-1363 (1983), the contents of which are incorporated herein by reference). Pretraining involved three 10 s presentations of a small (2 mm diameter) white bead, at approximately 5 minute intervals. […] Two training techniques were used: “strong” and “weak” training. In both, 5 to 10 minutes after the last pre-training trial, chicks were trained by a 10 s presentation of a 4 mm diameter chrome bead, which had been dipped in the bitter-tasting methylanthranilate. Control chicks pecked at a water-coated or dry bead. In the “strong” version of the task, 100% methylanthranilate was used. In the “weak” version, 10% methylanthranilate was used. Chicks spontaneously pecked at the training or control beads within 20 s. Chicks that pecked at the bitter bead evinced a disgust reaction and would not normally peck at a similar, but dry bead for some hours subsequently. At various times following training chicks were tested, by offering them a dry 4 mm diameter chrome bead, followed 10 minutes later by a small (2 mm diameter) white bead, each for 20 to 30 s. Animals were tested by an experimenter blind as to which treatment each chick had received. […] Recall is calculated as a percent avoidance score (percentage of chicks which avoid the chrome bead) and as a discrimination score (percentage of chicks which avoid the chrome but peck at the white bead). […]

[3] = system: chicks with Anisomycin-induced amnesia; assay: passive avoidance task, Anisomycin-induced amnesia in chicks; assay type: in vivo, chick; settings: 8 μg/hemisphere ic pre-training; Anisomycin 125 nmol/hemisphere ic immediately post-training; tested 3 hr post training
Method: FIG. 7 Effect of Ac-rER on Anisomycin-induced amnesia in chicks. Chicks were injected ic with 8 μg/hemisphere of Ac-rER 60 min pre-training followed by ic injection of Anisomycin (125 nmol/hemisphere). immediately post-training. Controls were injected with saline. Chicks were tested 3 hr post training. […] Each chick was trained and tested only once and differences between groups were tested for statistical significance by G-test (Sokal, and Rohlf, 1995).
Commercially obtained Ross Chunky eggs were incubated and hatched in brooders and held until 16±6 hours old. Chicks were placed in pairs in small aluminium pens. Following an equilibration period of an hour, the chicks were pretrained and trained essentially as described by Lossner and Rose (J. Neurochem. 41, 1357-1363 (1983), the contents of which are incorporated herein by reference). Pretraining involved three 10 s presentations of a small (2 mm diameter) white bead, at approximately 5 minute intervals. […] Two training techniques were used: “strong” and “weak” training. […] Recall is calculated as a percent avoidance score (percentage of chicks which avoid the chrome bead) and as a discrimination score (percentage of chicks which avoid the chrome but peck at the white bead). […]

[4] = system: chicks with MK801-induced amnesia; assay: passive avoidance task, MK801-induced amnesia in chicks; assay type: in vivo, chick; settings: 8 μg/hemisphere ic pre-training; MK801 0.020 mg/100 gr ip pre-training; tested 3 hr later
Method: FIG. 8 Effect of Ac-rER on MK801-induced amnesia. Chicks were injected ic with 8 μg/hemisphere of Ac-rER 60 min pre-training followed by ip injection of MK80 1 (0.020 mg/100 gr) pre-training. Controls were injected with saline. Chicks were tested 3 hr later. […] Each chick was trained and tested only once and differences between groups were tested for statistical significance by G-test (Sokal, and Rohlf, 1995).
Commercially obtained Ross Chunky eggs were incubated and hatched in brooders and held until 16±6 hours old. Chicks were placed in pairs in small aluminium pens. Following an equilibration period of an hour, the chicks were pretrained and trained essentially as described by Lossner and Rose (J. Neurochem. 41, 1357-1363 (1983), the contents of which are incorporated herein by reference). Pretraining involved three 10 s presentations of a small (2 mm diameter) white bead, at approximately 5 minute intervals. […] Two training techniques were used: “strong” and “weak” training. In both, 5 to 10 minutes after the last pre-training trial, chicks were trained by a 10 s presentation of a 4 mm diameter chrome bead, which had been dipped in the bitter-tasting methylanthranilate. […] Recall is calculated as a percent avoidance score (percentage of chicks which avoid the chrome bead) and as a discrimination score (percentage of chicks which avoid the chrome but peck at the white bead). […]

[5] = system: chicks trained on a weak training task; settings: as described in WO02/083729; cited from earlier work

Molecule | performance on the weak training task, FIG. 3 ([1]; 2×ip injections, 1 mg/100 gr bw, 30 min and 6 hr pre-training, tested 24 hr later, control Ac-REr) | bio-activity as a cognitive enhancer [1] | bio-activity as a cognitive enhancer ([1]; listed as Ac-RER) | dose sufficient to enhance memory, FIG. 5 ([1]; ip 60 min pre-training, tested 24 after) [mg per 100 g body weight] | time prior to training at which injection still acts as cognitive enhancer and neuroprotective agent ([1]; ip, FIGS. 2 and 3) | persistence of effect: time before training at which peptide is effective, FIG. 6 ([1]; single ip injection of 1-2 mg/100 g bw, tested 24 hr later) [h] | time of administration before training at which peptide is most effective, FIG. 6 ([1]; single ip injection, weak training) [h] | memory retention (percent showing avoidance and discrimination), FIG. 1 ([1]; tested 24 after) | memory retention (percent showing avoidance and discrimination), FIG. 1 ([1]; tested 24 after, listed as Ac-ReR) | memory retention in Aβ-induced amnesia, FIG. 2 ([2]; 2×ip, 1 mg/100 gr bw, 6 hr and 12 hr pre-training, Aβ1-42 2 μg/hemisphere ic 60 min pre-training, tested 24 hr later) | protection against amyloid-beta induced memory loss [2] | protection against amyloid-beta induced memory loss ([2]; listed as Ac-RER) | effect on Anisomycin-induced amnesia, FIG. 7 [3] | effect on MK801-induced amnesia, FIG. 8 [4] | time prior to training at which injection is still effective (maximum), unprotected L-form [5] [h]
CC(=O)NC(CCCNC(=N)N)C(=O)NC(CCC(=O)O)C(=O)N[C@@H](CCCNC(=N)N)C(N)=O (stereo partly drawn) [Ac-rER] (Ac-[ξR]-[ξE]-Arg-NH2) | significantly enhanced; also recorded: effective when injected peripherally | active as a cognitive enhancer | effective as a cognitive enhancer | 1 | up to 12 hr | ≤ 12 | 4 | enhances memory retention to the levels observed in the chick treated with the Ac-L/L/L/ form | significant but lesser effects | restores cognitive function and prevents memory loss | protecting against amyloid-beta induced memory loss | protecting against amyloid-beta | prevents either of these drugs from inducing amnesia | prevents either of these drugs from inducing amnesia | –
Arg-Glu-Arg [RER] | – | – | – | – | – | – | – | – | – | – | – | – | – | – | ≤ 3
